Measured values: ChEMBL document CHEMBL3301361, “Experimental in vitro DMPK and physicochemical data on a set of publicly disclosed compounds”
Values after ≈ are worked out from the molar mass of the structure shown. Where a name gives a salt, the structure may show the parent alone.

How the values were obtained:
[1] = in vitro; details: human, plasma
[2] = in vitro; details: SD, HW or BN, rat, plasma
[3] = physchem; details: pH 7.4 buffer
[4] = physchem; details: octan-1-ol/water, pH 7.4, LogD7.4

| Compound | fraction unbound at 5 h ([1]; PPB) | fraction unbound at 5 h [2] | fraction unbound at 5 h [1] | solubility thermodynamic [3] [µM] | logD [4] |
| --- | --- | --- | --- | --- | --- |
| N#Cc1cc(S(=O)(=O)Nc2ncc(Cl)s2)ccc1Oc1ccc(Cl)cc1-c1ccnn1C1CNC1 | 0.0081 | 0.0142 |  |  |  |
| CNC1(c2ccccc2Cl)CCCCC1=O (configuration not stated) [KETAMINE] |  | 0.552 | 0.58 |  |  |
| COc1ccc(C2CNC(=O)C2)cc1OC1CCCC1 (configuration not stated) [ROLIPRAM] | 0.173 | 0.329 |  |  |  |
| CC(C)(C)C(NC(=O)c1ccccc1)C(=O)c1ccc(Cl)cc1 (configuration not stated) | 0.006 | 0.0081 |  |  |  |
| O=C(CC(c1ccccc1)c1ccccc1)N1CCN(C(c2ccccc2)c2ccccc2)CC1 [Z160] | 0.001 | 0.5 |  |  |  |
| CC(C)(Oc1ccc(Cl)cc1)C(=O)N1CCN(c2ccccn2)CC1 | 0.0077 | 0.0092 |  |  |  |
| COc1ccc2c(c1)C(=O)C(=O)N2CC1COc2ccccc2O1 (configuration not stated) | 0.0066 | 0.0059 |  |  |  |
| CC(C)(C)NC(=O)CN1CCN(CC(=O)NC23CC4CC(CC(C4)C2)C3)CC1 | 0.299 | 0.309 |  |  |  |
| CCC[C@@H](c1ccc(C(=O)O)c(Oc2cccc(Cl)c2)c1)N1CCC[C@H](n2cc(C)c(=O)[nH]c2=O)C1 | 0.007 | 0.0179 |  |  |  |
| O=c1cc(N2CCOCC2)nc2n(Cc3cccc(Cl)c3)ccn12 | 0.101 | 0.11 |  |  |  |
| O=c1nc(N2CCOCC2)cc(N(CCO)Cc2cccc3ccccc23)[nH]1 | 0.139 | 0.151 |  |  |  |
| CC(Cc1ccccn1)N1C(=O)c2ccccc2C1C(=O)NCc1ccc(OC(F)(F)F)cc1 (configuration not stated) | 0.0111 | 0.0366 |  |  |  |
| CN(C)CCC1CCN(c2cc(C(=O)NC[C@H]3CC[C@H](CNC(=O)OC4CCOCC4)CC3)c3ccccc3n2)CC1 | 0.179 | 0.262 |  |  |  |
| C[S+]([O-])Cc1ccc(C(=O)Nc2cccnc2C(=O)NCC2CCC2)c2ccccc12 (configuration not stated) |  | 0.0119 | 0.013 |  |  |
| CC(C)NC[C@H](O)COc1cccc2ccccc12 [LEVOPROPRANOLOL] |  | 0.204 | 0.139 |  |  |
| COCCCC/C(=N\OCCN)c1ccc(C(F)(F)F)cc1 [FLUVOXAMINE MALEATE] | 0.266 | 0.224 |  |  |  |
| Cc1onc(-c2ccccc2)c1C(=O)N(C)c1ccc(Cl)cc1 | 0.0418 | 0.0752 |  |  |  |
| C[N+](C)(Cc1ccc(NC(=O)c2ccc(Cl)c(Cl)c2)cc1)C1CCOCC1 [JNJ-17166864 CATION] | 0.179 | 0.387 |  |  |  |
| CC(C)(C)OC(=O)N[C@H](Cc1ccccc1C(F)(F)F)C(=O)NCc1nc2cccnc2n1Cc1ccccc1 | 0.0111 | 0.002 |  |  |  |
| CN1CCN(S(=O)(=O)c2ccc(-c3cnc(N)c(C(=O)Nc4cnccc4CN4CCCC4)n3)cc2)CC1 | 0.0784 | 0.0988 |  |  |  |
| CCN1CCC[C@H]1CNC(=O)c1c(O)c(Cl)cc(Cl)c1OC [RACLOPRIDE] | 0.11 | 0.557 |  |  |  |
| O=C(NCc1ccccn1)c1cc(-c2ccccc2)nc2ccccc12 | 0.013 | 0.02 |  |  |  |
| O=C(NCc1cccc(OC(F)(F)F)c1)C1c2ccccc2C(=O)N1CCc1ncc(F)cn1 (configuration not stated) | 0.0447 | 0.179 |  |  |  |

| Compound | fraction unbound at 5 h ([1]; PPB) | fraction unbound at 5 h [2] | fraction unbound at 5 h [1] | solubility thermodynamic [3] [µM] | logD [4] |
| --- | --- | --- | --- | --- | --- |
| Cc1ccc(S(=O)(=O)NCCSc2nnnn2-c2ccc(C(N)=O)cc2)cc1 | 0.101 | 0.19 |  |  |  |
| Cc1cc(C)c(C)c(Cn2ccc3c(/C=N/NC(=O)c4ccc(O)c(C#N)c4)cccc32)c1C | 0.04 | 0.0032 |  |  |  |
| O=S(=O)(N[C@H](CO)C(C(F)(F)F)C(F)(F)F)c1ccc(Cl)s1 [BEGACESTAT] | 0.0909 | 0.11 |  |  |  |
| O=C(NCc1ccc(OC(F)(F)F)cc1)C1c2ccccc2C(=O)N1CCc1ccccn1 (configuration not stated) | 0.0358 | 0.0447 |  |  |  |
| Cc1ncc(C(N)=S)nc1-c1ccc([C@H]2CC[C@H](CC(=O)O)CC2)cc1 | 0.028 | 0.0099 |  |  |  |
| Cc1ccc(S(=O)(=O)Nc2ccc3nc(C)oc3c2)cc1 | 0.0209 | 0.051 |  |  |  |
| O=C(NCc1ccc(OC(F)(F)F)cc1)C1c2cccc(O)c2C(=O)N1CCc1ncc(F)cn1 (configuration not stated) | 0.0179 | 0.0418 |  |  |  |
| CC(C)(C)OC(=O)N1CCC(OCc2nc(-c3ccncc3)no2)CC1 |  | 0.0752 |  | 269 (≈ 97 µg/mL) | 3 |
| CC(C)C(NC(=O)c1ccccc1)C(=O)c1ccc(F)cc1 (configuration not stated) | 0.0499 | 0.0836 |  |  |  |
| CCCCc1nc(Cl)c(C(=O)O)n1Cc1ccc(-c2ccccc2-c2nn[nH]n2)cc1 [CARBOXYLIC ACID METABOLITE] | 0.0049 | 0.0022 |  |  |  |
| COCCNCC(=O)NC12CC3CC(CC(C3)C1)C2 | 0.5 | 0.483 |  |  |  |
| Cc1nnc(-c2ccc(N3CCC(Oc4cc(F)ccc4Cl)CC3)nn2)o1 | 0.0179 | 0.0082 |  |  |  |
| CNc1ccc(-c2nc3ccc(O)cc3s2)cc1 [PITTSBURGH COMPOUND B UNLABELLED] | 0.0111 | 0.0183 |  |  |  |
| CCC[C@H](c1ccc(C(=O)O)c(Oc2cccc(Cl)c2)c1)N1CCC[C@H](n2cc(C)c(=O)[nH]c2=O)C1 | 0.0119 | 0.016 |  |  |  |
| O=C(O)c1c(O)c(Cc2ccc(Cl)cc2)nc2c3c(ccc12)CCCC3 [PSI-697] | 0.0007 | 0.0014 |  |  |  |
| Nc1nc(-c2nn(Cc3ccccc3F)c3ncccc23)nc(N)c1N1CCOCC1 |  | 0.117 | 0.0768 |  |  |
| CN(Cc1cccc2ccccc12)c1cc(N2CCOCC2)nc(=O)[nH]1 | 0.0568 | 0.0064 |  |  |  |
| Cc1c(F)cc(C(=O)NC2CC2)cc1-c1ccc(C(=O)NCC(C)(C)C)cn1 [LOSMAPIMOD] | 0.119 | 0.0818 |  |  |  |
| O=C(N[C@@H]1COc2cccc(-c3ccc(CO)nc3)c2C1)c1ccc(OCCOCC(F)(F)F)nc1 | 0.0409 | 0.089 |  |  |  |
| Cc1cc(Oc2ncc(C(F)(F)F)cc2Cl)ccc1CC1SC(=O)NC1=O (configuration not stated) | 0.0006 | 0.0021 |  |  |  |
| CN(c1ccccc1)S(=O)(=O)c1ccc(NC(=O)C(C)(O)C(F)(F)F)cc1 (configuration not stated) | 0.0229 | 0.024 |  |  |  |
| CC(C)C(NC(=O)c1ccccc1)C(=O)c1ccc([N+](=O)[O-])cc1 (configuration not stated) | 0.0418 | 0.069 |  |  |  |
| COc1ncc(-c2ccccc2C(F)(F)CNC(=O)c2ccc(COCC(F)(F)F)nc2)cn1 | 0.0099 | 0.129 |  |  |  |

| Compound | fraction unbound at 5 h ([1]; PPB) | fraction unbound at 5 h [2] | fraction unbound at 5 h [1] | solubility thermodynamic [3] [µM] | logD [4] |
| --- | --- | --- | --- | --- | --- |
| Cc1nc(C)c(-c2ccc([C@H]3CC[C@H](CC(=O)NC(C)(C)C(=O)O)CC3)cc2)nc1C(N)=O | 0.0784 | 0.0251 |  |  |  |
| COc1ncc(-c2cccc(C#N)c2CCNC(=O)c2ccc(OCCC(F)(F)F)nc2)cn1 | 0.119 | 0.139 |  |  |  |
| CC(NC(=O)c1cc2ccccc2[nH]1)c1ccccc1 (configuration not stated) | 0.0219 | 0.0366 |  |  |  |
| O=C(NCc1ccc(OCC(F)(F)F)nc1)C1c2ccccc2C(=O)N1CCc1ccccn1 (configuration not stated) | 0.0928 | 0.371 |  |  |  |
| CC(C)(C)OC(=O)NC[C@H]1CC[C@H](CNC(=O)c2cc(-c3ccccc3)nc3ccccc23)CC1 | 0.0008 | 0.005 |  |  |  |
| CCOc1ccc([C@@H](C)Nc2nc(N3CCN(C(C)=O)CC3)nc3c2CN(C(C)C)C3=O)cc1F | 0.334 | 0.258 |  |  |  |
| Cc1nc(C(C)C)c(-c2ccc([C@H]3CC[C@H](CC(=O)O)CC3)cc2)nc1C(N)=O | 0.0219 | 0.0119 |  |  |  |
| COc1cccc2c1c(NS(=O)(=O)c1ccc(Cl)s1)nn2Cc1cccc(CNC(C)=O)c1 | 0.0066 | 0.0028 |  |  |  |
| Cc1nc2ccc(NS(=O)(=O)c3ccc4c(c3)OCCO4)cc2s1 | 0.0033 | 0.0067 |  |  |  |
| CC(C)C(NC(=O)c1ccccc1)C(=O)c1ccc(C#N)cc1 (configuration not stated) | 0.0928 | 0.124 |  |  |  |
| CC(C)C(NC(=O)c1cc(Cl)ccc1C(F)(F)F)C(=O)c1ccc(C#N)cc1 (configuration not stated) | 0.0262 | 0.0428 |  |  |  |
| O=c1cc(N2CCOCC2)nc(NCc2ccccc2)[nH]1 | 0.266 | 0.19 |  |  |  |
| c1ccc2c(c1)CCC[C@H]2Nc1nc2ccccc2[nH]1 | 0.007 | 0.0437 |  |  |  |
| O=c1cc(N2CCOCC2)nc(NCc2cccc(Cl)c2)[nH]1 | 0.0705 | 0.0477 |  |  |  |
| Cc1ccc(S(=O)(=O)Nc2c(C(=O)NC3CCOCC3)c(C)nn2-c2ccccc2)cc1 | 0.0262 | 0.089 |  |  |  |
| O=C(NCc1ccc(F)c(OC(F)(F)F)c1)C1c2ccccc2C(=O)N1CCc1ncc(F)cn1 (configuration not stated) | 0.0321 | 0.0988 |  |  |  |
| COc1ccc(CCC[N+](C)(CCCc2ccc(OC)cc2)CCNC(=O)c2nc(Cl)c(N)nc2N)cc1 | 0.163 | 0.157 |  |  |  |
| CC(C)c1noc(C2CCN(c3ncnc(Nc4ccc(S(C)(=O)=O)cc4F)c3[N+](=O)[O-])CC2)n1 | 0.0099 | 0.016 |  |  |  |
| COc1ccc(CN2CCc3c([nH]c4ccccc34)C2)cc1OC |  | 0.0418 |  | 51.3 (≈ 16.5 µg/mL) | 3.1 |
| O=c1cc(N2CCOCC2)nc(NCc2cccc(Cl)c2Cl)[nH]1 | 0.0209 | 0.0179 |  |  |  |
| COC[C@H](C)Oc1cc(O[C@@H](C)Cc2ccccc2)cc(C(=O)Nc2ccc(C(=O)O)cn2)c1 |  | 0.0042 |  | 1480 (≈ 687 µg/mL) | 1.5 |
| O=c1cc(N2CCOCC2)nc(NCc2c(Cl)cccc2Cl)[nH]1 | 0.04 | 0.0418 |  |  |  |
| Cc1ccc(NC(=O)c2cccc(N3CCOCC3)c2)cc1-n1cnc2ccc(N3CCN(C)CC3)cc2c1=O |  | 0.103 |  | 427 (≈ 230 µg/mL) | 2.69 |
